Results as given in ChEMBL document CHEMBL4007395 (J Med Chem, 2017).

What was measured:
[1] = Inhibition of Escherichia coli AmpC beta-lactamase using CENTA as substrate preincubated for 5 mins followed by substrate addition by UV-vis spectrophotometric method
[2] = Inhibition of malate dehydrogenase (unknown origin) using oxaloacetate as substrate preincubated for 5 mins followed by substrate addition by UV-vis spectrophotometric method; parameters: species or system Homo sapiens
[3] = molecular target: Glycogen synthase kinase-3 beta (Rattus norvegicus, UniProt P18266); test: Inhibition of recombinant rat N-terminal GST-tagged GSK3beta expressed in Escherichia coli assessed as reduction in tau phosphorylation preincubated for 30 mins followed by tau protein addition measured after 1 hr by ELISA
[4] = Inhibition of Escherichia coli AmpC beta-lactamase using CENTA as substrate preincubated for 5 mins followed by substrate addition in presence of nonionic detergent Triton-X-100 by UV-vis spectrophotometric method
[5] = Inhibition of HIV-2 protease using anthranilyl-HIV protease as substrate preincubated for 5 mins followed by substrate addition in presence of nonionic detergent Triton-X-100 by fluorescence assay; parameters: species or system Human immunodeficiency virus 2
[6] = system: Plasma; test: Plasma concentration in human at 8 g/day, po by HPLC/TMS; format: ADME, organism-based; details: in vivo
[7] = system: Mus musculus; test: Cmax in mouse at 100 mg/kg, po after 30 mins; format: ADME, organism-based; parameters: dose 100 mg/kg, route oral; details: in vivo, 0.5 h
[8] = Drug uptake in human rectal mucosa assessed per gram protein at 2 g/day for 30 days; format: ADME; details: 720 h
[9] = Half-life in Sprague-Dawley rat at 500 mg/kg, po by LC-MS/MS analysis; format: ADME, organism-based; details: in vivo
[10] = Oral bioavailability in Sprague-Dawley rat at 500 mg/kg by LC-MS/MS analysis; format: ADME, organism-based; details: in vivo
[11] = Half-life in Tris-HCl buffer at 70 uM at pH 7.2 by UV/Vis spectrophotometric method; format: physicochemical
[12] = species: Homo sapiens; test: Effect on total aberrant foci number in human colon cancer patient at 2 g/day for 30 days during phase IIa study by colonoscopic analysis; format: functional
[13] = Inhibition of malate dehydrogenase (unknown origin) using oxaloacetate as substrate preincubated for 5 mins followed by substrate addition in presence of nonionic detergent Triton-X-100 by UV-vis spectrophotometric method; parameters: species or system Homo sapiens
[14] = Cmax in human at 12 g, po administered as single dose capsule after 2 hrs by UV-HPLC method; format: ADME, organism-based; parameters: dose 12 g, route oral; details: in vivo
[15] = Half-life in Tris-HCl buffer at 70 uM at pH 7.5 by UV/Vis spectrophotometric method; format: physicochemical
[16] = system: Plasma; test: Drug metabolism in human plasma assessed as curcumin sulfate formation at 3.6 g, po administered as capsule measured at 1 hr post dose by UV-HPLC-MS analysis; format: ADME, organism-based; details: in vivo
[17] = system: Plasma; test: Drug metabolism in human plasma assessed as curcumin glucuronide formation at 3.6 g, po administered as capsule measured at 1 hr post dose by UV-HPLC-MS analysis; format: ADME, organism-based; details: in vivo
[18] = Inhibition of HIV-2 protease using anthranilyl-HIV protease as substrate preincubated for 5 mins followed by substrate addition by fluorescence assay; parameters: species or system Human immunodeficiency virus 2
[19] = Apparent permeability in human Caco2 cells; format: ADME, cell-based; details: Caco-2
[20] = species: Homo sapiens; test: Effect on total aberrant foci number in human colon cancer patient at 4 g/day for 30 days during phase IIa trial by colonoscopic analysis; format: functional
[21] = Drug uptake in human rectal mucosa assessed per gram protein at 4 g/day for 30 days; format: ADME; details: 720 h
[22] = Plasma concentration in human at 3.6 g, po administered as capsule measured at 1 hr post dose by UV-RP-HPLC method; format: ADME, organism-based

Glycogen synthase kinase-3 beta, sequence (P18266 whole entry): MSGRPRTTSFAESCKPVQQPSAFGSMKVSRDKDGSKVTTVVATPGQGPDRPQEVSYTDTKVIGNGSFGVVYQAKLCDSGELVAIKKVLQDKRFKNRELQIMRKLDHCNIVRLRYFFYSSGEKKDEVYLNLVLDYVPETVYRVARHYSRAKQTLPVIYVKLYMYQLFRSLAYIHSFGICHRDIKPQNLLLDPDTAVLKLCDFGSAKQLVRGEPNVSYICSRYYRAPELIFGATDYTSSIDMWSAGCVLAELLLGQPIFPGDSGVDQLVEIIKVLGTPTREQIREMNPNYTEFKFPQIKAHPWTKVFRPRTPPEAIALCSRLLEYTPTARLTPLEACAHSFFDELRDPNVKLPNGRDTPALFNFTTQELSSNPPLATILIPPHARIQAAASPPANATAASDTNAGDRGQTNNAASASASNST

**Q.** Which results are given for `COc1cc(/C=C/C(=O)CC(=O)/C=C/c2ccc(O)c(OC)c2)ccc1O` [CURCUMIN]?
**A.** IC50 [1]: 12 µM; IC50 [2]: 9 µM; IC50 [3]: 0.066 µM; IC50 [4]: > 30 µM; IC50 [5]: > 100 µM; Cp [6]: 22 to 41 ng/mL; Cmax [7]: 60 nM; Drug uptake [8]: 8.2 µg; half-life [9]: < 5 min; bioavailability [10]: < 1%; half-life at 70 µM [11]: < 10 min; Activity [12]: 0; IC50 [13]: > 30 µM; Cmax [14]: 57.6 ng/mL; half-life at 70 µM [15]: 20 min; Drug metabolism [16]: 8.9 nmol/L; Drug metabolism [17]: 15.8 nmol/L; IC50 [18]: 9 µM; Papp [19]: 3.18 ×10⁻⁶ cm/s; Activity [20]: 6; Drug uptake [21]: 3.8 µg; concentration at 1 h [22]: 11.1 ng/mL
